The text below walks through data of US20260232876A1, “POROUS METAL STRUCTURES INCORPORATING NANOPARTICLES” (Yissum Research Development Company of the Hebrew …, priority 2023, published 2026).

The series can be described thus: Thymol retention on porous titanium in open air, remaining thymol by HPLC. In kind it is physicochemical. Conditions: 360 h.

`Cc1ccc(C(C)C)c(O)c1` [free thymol, thymol]: the “amount of thymol remaining in the samples” value is recorded as “almost no thymol left”.
